Laboratory results from patent publication EP0339496A2, “Aminoguanidine derivatives” (ONO PHARMACEUTICAL CO., LTD., priority 1988, dated 1989).

Tests used:
Maillard reaction [1] = test: Inhibitory effect on Maillard reaction in vitro (bovine serum albumin + glucose, fluorescence); type: biochemical; conditions: bovine serum albumin 100 mg/ml, glucose 200 mM, 0.5 M phosphate buffer pH 7.38, one week at 37°C, fluorescence ex 360 nm / em 450 nm
Method: In order to evaluate the inhibitory effect on Maillard reaction in vitro, of the compounds in the present invention, the measurement was carried out under conditions described below. Bovine serum albumin (100 mg/ml), glucose (200 mM) and test compound (6 mM, 30 mM in example 2 and 2(a)) were dissolved in 0.5 M phosphatic buffer solution (pH 7.38), and the mixture was incubated for a week at 37°C. After incubation, the incubated medium was diluted 100 times with the same phosphatic buffer solution, and the fluorescence spectrum was measured at the excitation maximum of 360nm and the emission maximum of 450 nm. Inhibition percentage of the test compounds was calculated by the following equation: [table]

[2] = test system: advanced glycosylation end products in arterial wall connective tissue protein; conditions: administered to diabetic rats; Brownlee et al., Science, 232, 1629 (1986); cited from earlier work
Maillard reaction [3] = conditions: Brownlee et al., Science, 232, 1629 (1986); cited from earlier work
[4] = test compound 30 mM (example 2 and 2(a))

Compound: I.N=C(NN)NCc1ccc(F)cc1 [1 (e), 1-amino-3-(4-fluorobenzyl) guanidine hydroiodide]
- Inhibitory effect (%) (Maillard reaction [1]; test compound 6 mM): 43%

Compound: COc1ccc(CNC(=N)NN)cc1.I [1 (f), 1-amino-3-(4-methoxybenzyl) guanidine hydroiodide]
- Inhibitory effect (%) (Maillard reaction [1]; test compound 6 mM): 54%

Compound: CCCCN(CCCC)C(=N)NN [1 (g), 1-amino-3,3-n-butylguanidine hydroiodide]
- Inhibitory effect (%) (Maillard reaction [1]; test compound 6 mM): 34%

Compound: N=C(NN)NCc1cccc2ccccc12 [1 (h), 1-amino-3-(1-naphtylmethyl) guanidine hydroiodide]
- Inhibitory effect (%) (Maillard reaction [1]; test compound 6 mM): 51%

Compound: I.N=C(NN)NCc1cccc([N+](=O)[O-])c1 [1 (i), 1-amino-3-(3-nitrobenzyl) guanidine hydroiodide]
- Inhibitory effect (%) (Maillard reaction [1]; test compound 6 mM): 57%

Compound: CN(C(=N)NN)c1ccccc1.I [1 (o), 1-amino-3-methyl-3-phenyl guanidine hydroiodide]
- Inhibitory effect (%) (Maillard reaction [1]; test compound 6 mM): 54%

Compound: CN(N)C(=N)NCc1ccccc1.I [1 (r), 1-amino-1-methyl-3-benzylguanidine hydroiodide]
- Inhibitory effect (%) (Maillard reaction [1]; test compound 6 mM): 36%

Compound: Cl.N=C(NN)N1CCCC1 [1 (u), 1-pyrrolidinecarbohydrazide imide hydrochloride]
- Inhibitory effect (%) (Maillard reaction [1]; test compound 6 mM): 43%

Compound: Cl.N=C(NN)N1CCOCC1 [1 (v), 4-morpholinecarbohydrazide imide hydrochloride]
- Inhibitory effect (%) (Maillard reaction [1]; test compound 6 mM): 36%

Compound: N=C(N)N(N)CCCc1ccccc1 [2 (b), 1-amino-1-(3-phenylpropyl) guanidine]
- Inhibitory effect (%) (Maillard reaction [1]; test compound 6 mM): 50%

Compound: N=C(N)N(N)CC1CCCC1 [2 (c), 1-amino-1-cyclopenthylmethyl guanidine]
- Inhibitory effect (%) (Maillard reaction [1]; test compound 6 mM): 56%

Compound: I.N=C(NN)NCCc1ccccc1 [Example 1 (a), 1-amino-3-phenethylguanidine hydroiodide]
- Inhibitory effect (%) (Maillard reaction [1]; test compound 6 mM): 72%

Compound: I.N=C(NN)NCc1ccccc1 [Example 1, 1-amino-3-benzylguanidine hydroiodide]
- Inhibitory effect (%) (Maillard reaction [1]; test compound 6 mM): 63%

Compound: N=C(N)N(N)Cc1ccccc1 [Example 2 (a), 1-amino-1-benzylguanidine]
- Inhibitory effect (%) (Maillard reaction [1]; [4]): 50%

Compound: N=C(N)N(N)CCc1ccccc1 [Example 2, 1-Amino-1-phenethylguanidine]
- Inhibitory effect (%) (Maillard reaction [1]; [4]): 71%

Compound: N=C(N)NN [aminoguanidine]
- inhibits diabetes-induced accumulation of advanced glycosylation end products in arterial wall connective tissue protein [2]: inhibits
- inhibits Maillard reaction in vitro (Maillard reaction [3]): inhibits
